# Reference: patent US5132302A, “Use of aromatic aminoalkoxy derivatives for the treatment of troubles of the cerebrovascular system” (priority 1989, dated 1992)
# System: isolated balisar artery of a rabbit
# Test: test of contractions of the isolated balisar artery of a rabbit in a hypopotassic medium (contraction induced by KC1)
# Assay type: cell-based
# Details: Oryctolagus cuniculus, read-out: IC50 (concentrations which reduce by 50% the amplitude of the contraction induced by KC1)
# Method: The protocol of this test is the following. The rabbit is anaesthetized with pentobarbital at a dose of 30 mg/kg then sacrificed by exsanguination and decapitated at the level of the third cervical vertebra. The balisar artery is removed (1.5 cm) between the vertebral arteries and the polygon of Willis. The balisar artery is then cut in a spiral at an angle of 45° . It is fixed by means of a curved needle between an L shaped glass carrier and a displacement sensor (Grass, type FT03). A mechanical tension of 500 mg is applied to the vessel before letting it reach its balance state.
# For a period of an hour, the vessel is rinsed every twenty minutes until a stable level is obtained.
# The tonic contraction consecutive to depolarization caused by KC1 is dependent on the calcic movements for it is abolished by the suppression of calcium in the survival medium.
row,SMILES,IC50 [nM]
1,COc1cc(F)c(OC)c(OCCN2CCCCC2)c1C(O)CCc1ccc(O)cc1 (stereo not shown) [compound 72],3

# Same assay, conditions: Oryctolagus cuniculus; isolated rabbit balisar artery; KC1 at 35 mmoles; read-out: IC50 (concentrations which reduce by 50% the amplitude of the contraction induced by KC1)
row,SMILES,IC50 [nM]
1,COc1ccc(OC)c(C(O)CCc2ccccc2)c1OCCN1CCCCC1 (stereo not shown) [compound 3],400
2,COc1ccc(OC)c(C(O)CCc2ccc(O)cc2)c1OCCN1CCCCC1 (stereo not shown) [compound 10],26
3,COc1cc(Cl)c(OC)c(OCCN2CCCCC2)c1C(O)CCc1ccc(O)cc1 (stereo not shown) [compound 69],2.3
4,CCN(CC)CCOc1c(OC)c(Cl)cc(OC)c1C(O)CCc1ccc(O)cc1 (stereo not shown) [compound 70],7.2
5,COc1cc(Cl)c(OC)c(OCCN(C(C)C)C(C)C)c1C(O)CCc1ccc(O)cc1 (stereo not shown) [compound 71],9.8
6,COc1cc([N+](=O)[O-])c(OC)c(C(O)CCc2ccc(O)cc2)c1OCCN1CCCCC1 (stereo not shown) [compound 74],1.4
